In ChEMBL document CHEMBL1127438, “Substituted (S)-phenylpiperidines and rigid congeners as preferential dopamine autoreceptor antagonists: synthesis and structure-activity relationships” (J Med Chem, 1994):
pKi: −log10 of the molar value. Values joined by “and” are separate entries in the source; they are usually repeats but may differ in a detail not shown here. Identical values can stand only once. One block for each compound: values may come before it.

Legend:
[1] = biological target: T1, D(3) dopamine receptor (Homo sapiens, UniProt P35462); assay: Tested for in vitro binding affinity against cloned mammalian dopamine D3 receptor, expressed in CHO-K1 cells, using [3H]spiperone as radioligand; type: cell-based
[2] = system: Rattus norvegicus; assay: Evaluated biochemically in reserpine-pretreated habituated rats for (100 umol/kg) subcuteneous dose in rat striatum (DOPAacc), Value expressed as counts/30 min; type: functional
[3] = system: Rattus norvegicus; assay: Evaluated for DOPA accumulation (DOPAacc) level in nonhabituated rats after subcuteneous dose (100 uM/kg) in rat striatum; type: functional
[4] = system: Rattus norvegicus; assay: Effect of (60 min after administration of 200 (uM/kg) subcuteneous dose on DA release in brain dialysis model of rat striatum; Values expressed as percent of saline controls; type: functional
[5] = organism: Rattus norvegicus; assay: Compound was tested in vio for concomitant ability to antagonize the locomotor activity of rat induced by Di-Pr-5,6-ADTN, Value expressed as locomotor activity (LMA), % of control; type: functional; parameters: scale not given: the % may be the effect or the level left
[6] = system: Rattus norvegicus; assay: Tested in vivo for its ability to displace DA receptor agonist (Di-Pr-5,6-ADTN) from rat striatal binding sites at 0.25 uM/Kg sc. dose (after subtraction of cerebellum levels); type: functional
[7] = system: Rattus norvegicus; assay: Evaluated biochemically in nonhabituated rats for (100 umol/kg) subcuteneous dose, Value expressed as locomotor activity (LMA); type: functional
[8] = system: Rattus norvegicus; assay: Evaluated biochemically in nonpretreated habituated rats for (100 uM/kg) subcuteneous dose, Value expressed as locomotor activity (LMA); type: functional
[9] = system: Rattus norvegicus; assay: Evaluated biochemically in reserpine-pretreated habituated rats for (100 umol/kg) subcuteneous dose, Value expressed as locomotor activity (LMA); type: functional
[10] = biological target: T2, D(2) dopamine receptor (Rattus norvegicus, UniProt P61169)
Description: Affinity against striatal dopamine D2 receptors using [3H]spiperone as radioligand in rats.

[11] = biological target: T3, D(2) dopamine receptor (Homo sapiens, UniProt P14416); assay: biochemical
Description: (§1) Affinity against recombinant dopamine receptor (DA) D2 expressed in CHO-K1 cells, using [3H]-spiperone as radioligand

[12] = biological target: T3, D(2) dopamine receptor; assay: biochemical; remark: listed apart in the source
Description: In vitro binding affinity against cloned mammalian dopamine D2 autoreceptor, expressed in CHO-K1 cells, using [3H]U-86170 as radioligand

[13] = biological target: Dopamine receptor; assay: Tested for in vitro binding affinity against cloned mammalian dopamine autoreceptor (DA) receptors expressed in CHO-K1 cells using [3H]U-86170 as radioligand; type: cell-based
[14] = biological target: T1, D(3) dopamine receptor; assay: Tested for in vitro binding affinity against cloned mammalian dopamine autoreceptor (DA) receptors expressed in CHO-K1 cells [3H]-spiperone as radioligand; type: cell-based
[15] = biological target: T2, D(2) dopamine receptor; assay: Tested for affinity against striatal dopamine autoreceptor (DA) D2 receptors using [3H]spiperone as radioligand in rats.
[16] = system: Rattus norvegicus; assay: Compound is evaluated for DOPA accumulation in reserpine-pretreated habituated rats at 100 umol/kg of subcuteneous dose in rat striatum; type: functional
[17] = system: Rattus norvegicus; assay: Evaluated for biochemical levels of DOPAC in nonpretreated habituated rats for subcuteneous dose of 100 micro mol/kg in rat striatum; type: functional
[18] = system: Rattus norvegicus; assay: Compound is evaluated for locomotor activity in reserpine-pretreated habituated rats for (100 umol/kg) subcuteneous dose; type: functional
[19] = system: Rattus norvegicus; assay: Evaluated for locomotor activity in nonpretreated habituated rats at 100 umol/kg of subcuteneous dose; type: functional; parameters: unit not given here
[20] = biological target: T2, D(2) dopamine receptor; assay: Tested for affinity against cloned mammalian dopamine autoreceptor (DA) D2 receptors expressed in CHO-K1 cells using [3H]spiperone as radioligand; type: cell-based
[21] = system: Rattus norvegicus; assay: Compound is evaluated biochemically in nonhabituated rats for (0.64 micro mol/kg) subcuteneous dose in rat striatum (DOPAacc); type: functional
[22] = system: Rattus norvegicus; assay: Compound is evaluated for DOPA accumulation in reserpine-pretreated habituated rats fat 3.2 micro mol/kg of subcuteneous dose in rat striatum; type: functional
[23] = system: Rattus norvegicus; assay: Effect (60 min after administration of 200 (1.6 micro mol/kg) subcuteneous dose on DA release in brain dialysis model of rat; type: functional
[24] = system: Rattus norvegicus; assay: Compound is evaluated for locomotor activity in reserpine-pretreated habituated rats at 3.2 umol/kg) of subcuteneous dose; type: functional
[25] = system: Rattus norvegicus; assay: Compound is evaluated for locomotor activity in nonhabituated rats at 3.2 umol/kg of subcuteneous dose; type: functional
[26] = system: Rattus norvegicus; assay: Compound is evaluated for locomotor activity in nonpretreated habituated rats in 25 umol/kg of subcuteneous dose; type: functional
[27] = system: Rattus norvegicus; assay: Evaluated for DOPA accumulation in nonhabituated rats at 100 umol/kg of subcuteneous dose in rat striatum; type: functional
[28] = system: Rattus norvegicus; assay: Compound is evaluated for DOPA accumulation in reserpine-pretreated habituated rats at 100 micro mol/kg of subcuteneous dose in rat striatum; type: functional
[29] = system: Rattus norvegicus; assay: Effect (60 min after administration of 200 (micro mol/kg) subcuteneous dose on DA release in brain dialysis model of rat; type: functional
[30] = system: Rattus norvegicus; assay: Evaluated for locomotor activity in nonpretreated habituated rats in 100 umol/kg of subcuteneous dose; type: functional; parameters: unit not given here
[31] = system: Rattus norvegicus; assay: Compound is evaluated for accumulation of DOPA in nonhabituated rats at 100 umol/kg of subcuteneous dose in rat striatum; type: functional
[32] = system: Rattus norvegicus; assay: Effect 60 min after administration of 200 (umol/kg) subcuteneous dose on DA release in rat brain dialysis model; type: functional
[33] = system: Rattus norvegicus; assay: Compound is evaluated for locomotor activity in nonhabituated rats at 100 umol/kg of subcuteneous dose; type: functional
[34] = biological target: T3, D(2) dopamine receptor; conditions: cho-k1
Description: as §1

[35] = system: Rattus norvegicus; assay: Evaluated for DOPAC level in nonpretreated habituated rats after subcuteneous dose of 100 micro mol/kg in rat striatum; type: functional
[36] = system: Rattus norvegicus; assay: Compound was tested in vivo for its ability to displace DA receptor agonist (Di-Pr-5,6-ADTN) from rat striatal binding sites at 0.25 uM/Kg sc. dose; type: functional
[37] = organism: Rattus norvegicus; assay: Compound was tested in vio for concomitant ability to antagonize the locomotor activity of rat induced by Di-Pr-5,6-ADTN; type: functional
[38] = system: Rattus norvegicus; assay: Compound is tested for its ability to displace Di-Pr-5,6-ADTN at […] subcutaneous dose from rat striatal binding sites in vivo; type: functional
[39] = system: Rattus norvegicus; assay: Effect (60 min after administration of 200 (micro mol/kg) subcuteneous dose on DA release in brain dialysis model of rat striatum; type: functional
[40] = organism: Rattus norvegicus; assay: Compound is tested for concomitant ability to antagonize the locomotor activity induced by Di-Pr-5,6-ADTN; type: functional
[41] = system: Rattus norvegicus; assay: Compound is evaluated biochemically in reserpine-pretreated habituated rats for (50 micro mol/kg) subcuteneous dose in 5-HTP; type: functional

T3 sequence (P14416 whole entry): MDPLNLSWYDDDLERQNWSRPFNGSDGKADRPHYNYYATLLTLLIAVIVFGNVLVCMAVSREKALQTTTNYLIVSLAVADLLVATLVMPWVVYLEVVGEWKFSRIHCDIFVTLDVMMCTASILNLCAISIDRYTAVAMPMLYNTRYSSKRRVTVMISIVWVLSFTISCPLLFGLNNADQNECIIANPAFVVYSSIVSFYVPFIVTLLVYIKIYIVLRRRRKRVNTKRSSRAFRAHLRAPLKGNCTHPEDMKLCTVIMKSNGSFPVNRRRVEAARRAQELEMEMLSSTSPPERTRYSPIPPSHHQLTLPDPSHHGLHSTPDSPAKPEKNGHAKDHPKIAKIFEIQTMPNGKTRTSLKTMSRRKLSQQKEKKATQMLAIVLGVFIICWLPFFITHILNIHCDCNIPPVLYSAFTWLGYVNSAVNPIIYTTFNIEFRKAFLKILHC
T2 sequence (P61169 whole entry): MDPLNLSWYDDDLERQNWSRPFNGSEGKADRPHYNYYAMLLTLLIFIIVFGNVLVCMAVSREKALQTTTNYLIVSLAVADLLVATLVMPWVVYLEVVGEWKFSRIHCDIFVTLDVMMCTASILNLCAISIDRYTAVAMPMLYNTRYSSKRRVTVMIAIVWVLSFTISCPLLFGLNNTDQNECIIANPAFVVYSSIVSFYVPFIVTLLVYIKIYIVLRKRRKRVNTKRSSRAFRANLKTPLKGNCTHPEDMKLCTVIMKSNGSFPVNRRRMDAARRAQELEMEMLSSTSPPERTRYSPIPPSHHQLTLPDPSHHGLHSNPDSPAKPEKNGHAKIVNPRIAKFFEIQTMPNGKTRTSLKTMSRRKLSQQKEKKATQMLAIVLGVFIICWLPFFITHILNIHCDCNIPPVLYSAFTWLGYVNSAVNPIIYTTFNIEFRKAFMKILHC
T1 sequence (P35462 whole entry): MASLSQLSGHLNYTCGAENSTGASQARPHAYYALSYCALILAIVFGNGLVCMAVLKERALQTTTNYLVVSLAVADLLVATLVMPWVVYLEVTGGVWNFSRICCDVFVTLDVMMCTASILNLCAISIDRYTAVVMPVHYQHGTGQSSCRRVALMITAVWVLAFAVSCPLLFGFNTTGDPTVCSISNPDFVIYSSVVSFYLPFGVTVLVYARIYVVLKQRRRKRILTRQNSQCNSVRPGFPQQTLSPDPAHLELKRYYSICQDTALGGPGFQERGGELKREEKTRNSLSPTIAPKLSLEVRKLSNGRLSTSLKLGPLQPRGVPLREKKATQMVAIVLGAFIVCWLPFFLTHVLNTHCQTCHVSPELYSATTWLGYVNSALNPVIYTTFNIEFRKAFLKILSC

pKi [1]: 6.01
pKi [10]: 5.38
pKi [11]: < 6.66
pKi [12]: 6.72
SMILES: CCCN1CCC[C@@H](c2cccc(OS(C)(=O)=O)c2)C1
Activity [2]: 74%
Activity [3]: 249%
Activity [4]: 234%
Control [5]: 46%
Control [6]: 55%
Locomotor activity (% of control) [7]: 154%
Control [8]: 576%
Control [9]: 18%

SMILES: CCCN1CCC[C@@H](c2cccc(C=O)c2)C1
Ki [13]: 20 nM
pKi [14]: 7.08
pKi [15]: 5.95
Activity [16]: 92%
Activity [17]: 127%
LMA [18]: 5
LMA [19]: 208
pKi [11]: 6.84

pKi [15]: 5.63
pKi [20]: < 6.66
SMILES: CN(C)CCCN1CCC[C@@H](c2cccc(C#N)c2)C1

SMILES: CN1CCc2cccc3c2[C@H]1Cc1ccc(O)c(O)c1-3 [APOMORPHINE]
Activity [21]: 53%
Activity [17]: 65%
Activity [22]: 20%
Activity [23]: 37%
LMA [24]: 366
LMA [25]: 277
LMA [26]: 491

SMILES: O=S(=O)(Oc1cccc([C@@H]2CCCN(CCc3ccccc3)C2)c1)C(F)(F)F
Ki [13]: 11 nM
pKi [14]: 7.72
pKi [15]: 7.40
Activity [27]: 111%
Activity [28]: 66%
Activity [29]: 89%
LMA [30]: 20
pKi [11]: 7.14

SMILES: C#Cc1cccc([C@@H]2CCCN(CCC)C2)c1
Ki [13]: 334 nM
pKi [14]: 6.47
pKi [15]: 6.15
Activity [31]: 136%
Activity [17]: 138%
Activity [32]: 265%
LMA [33]: 237
LMA [19]: 671
pKi [11]: < 6.66

Ki [13]: > 1900 nM
pKi [14]: < 6.30
pKi [15]: < 6.76
pKi [34]: < 6.66
SMILES: C=CCN1CC[C@@H]2c3cccc(OS(=O)(=O)C(F)(F)F)c3CC[C@@H]21 (stereo in doubt; 50)
Activity [17]: 98%
LMA [30]: 148

SMILES: CCN1CCCC1CNC(=O)c1c(OC)ccc(Br)c1OC (single isomer, unassigned) [REMOXIPRIDE]
Activity [2]: 104%
Activity [3]: 411%
Activity [35]: 313%
Control [36]: 48%
LMA [37]: 91%
Locomotor activity (% of control) [7]: 60%
Control [9]: 5%

SMILES: CCCN1CCC[C@@H](c2ccccc2)C1
Ki [13]: 222 nM
pKi [14]: 6.11
pKi [15]: 5.83
Activity [27]: 140%
Activity [16]: 65%
Activity [17]: 188%
Activity [38]: 20%
Activity [39]: 473%
LMA [40]: 90%
pKi [11]: < 6.66

Ki [13]: 125 nM
pKi [14]: 7.17
pKi [15]: < 6.76
pKi [11]: < 6.66
SMILES: C=CCN1CCC2c3cccc(OS(=O)(=O)C(F)(F)F)c3CCC21 (configuration not stated)
Activity [41]: 52%
Activity [28]: 92%
Activity [17]: 175%
LMA [30]: 443 and 635
